Laboratory results taken from patent US20220125765A1, “PHARMACEUTICAL COMBINATIONS COMPRISING MEBENDAZOLE AND A STRONG OR MODERATE CYP1A2 INHIBITOR” (ZEPHAPHARM LTD, priority 2019, published 2022).
Read-outs that look alike come from different tables or passages of the source. One block for each compound: values may come before it.

What was measured:
[1] = Stability in human cryopreserved hepatocytes without and with cimetidine or furafylline (Example 5); format: in vitro ADME; settings: human, substrate 1 μM, read-out: t1/2
Description: The final incubation volume was 500 μL. Two control compounds were included with each species, alongside appropriate vehicle control.
The samples were analysed for mebendazole or ethoxycoumarin using LC-MS/MS.
The final incubation volume was 500 μL.
A positive control compound, ethoxycoumarin, for CYP1A2 was included. […] The samples were analysed for mebendazole or ethoxycoumarin using LC-MS/MS.

[2] = Stability in human liver microsomes without and with cimetidine or furafylline (Example 4); format: in vitro ADME; settings: substrate 1 μM; for half-life at 1 μM / microsomal CLint at 1 μM: human, liver microsomes
Description: A minus cofactor control incubation was included for each compound tested where 0.1 M phosphate buffer pH 7.4 was added instead of NADPH (minus NADPH). […] The samples were analysed for mebendazole or phenacetin using LC-MS/MS.
A minus cofactor control incubation was included for each compound tested where 0.1 M phosphate buffer pH 7.4 was added instead of cofactor (minus NADPH). […] The samples were analysed for mebendazole or phenacetin using LC-MS/MS.

CYP2D6 = CYP2D6 (Homo sapiens, UniProt P10635); experiment: Cytochrome P450 reaction phenotyping, recombinant CYP2D6 (Bactosomes); settings: human, recombinant enzyme, pH 7.4
CYP2D6, sequence (P10635 whole entry, canonical isoform): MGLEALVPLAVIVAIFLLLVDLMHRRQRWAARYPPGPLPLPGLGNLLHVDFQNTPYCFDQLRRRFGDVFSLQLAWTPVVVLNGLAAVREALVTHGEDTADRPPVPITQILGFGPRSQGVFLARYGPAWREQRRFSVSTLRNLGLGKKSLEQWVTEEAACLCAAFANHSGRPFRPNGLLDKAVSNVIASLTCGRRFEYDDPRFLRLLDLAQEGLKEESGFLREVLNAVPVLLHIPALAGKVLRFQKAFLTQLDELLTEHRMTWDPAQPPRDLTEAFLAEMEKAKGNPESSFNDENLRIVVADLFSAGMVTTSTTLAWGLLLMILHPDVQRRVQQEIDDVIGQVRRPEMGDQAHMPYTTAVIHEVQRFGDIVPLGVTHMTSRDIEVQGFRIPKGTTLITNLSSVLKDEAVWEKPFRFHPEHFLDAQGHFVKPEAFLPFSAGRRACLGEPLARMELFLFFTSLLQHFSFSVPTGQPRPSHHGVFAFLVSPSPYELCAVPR
Description: (§1) Incubations were also performed using control Bactosomes™ (no P450 enzymes present) to reveal any non-enzymatic degradation. Control compounds known to be metabolised specifically by each P450 isoform were included. All incubations were performed singularly for each test compound.
(§2) Incubations were also performed using control Bactosomes™ (no P450 enzymes present) to reveal any non-enzymatic degradation. Control compounds known to be metabolised specifically by each P450 isoform were included. All incubations were performed singularly for each test compound. […] The reactions were stopped by transferring an aliquot of incubate to quench solvent at the appropriate time points, in a 1:3 ratio. The termination plates were centrifuged at 3,000 rpm for 20 min at 4° C. to precipitate the protein.

[3] = Ricobendazole microsomal metabolic stability without and with cimetidine or furafylline (Example 8); format: in vitro ADME; settings: human, liver microsomes; for half-life at 0.1 μM: read-out: t½
Description: Incubation in the absence of NADPH was also performed to assess non-CYP mediated stability. Appropriate control compounds were also incubated.
A minus cofactor control incubation was included for each compound tested where 0.1 M phosphate buffer pH 7.4 was added instead of NADPH (minus NADPH). […] A control compound (phenacetin) was included (incubated without and with inhibitors as described above). All incubations were performed singularly for each test compound. Each incubation was carried out for 0, 5, 15, 30 and 45 min. The control (minus NADPH) was incubated for 45 min only.

CYP1A2 = target: T1, CYP1A2 (Homo sapiens, UniProt P05177); experiment: Cytochrome P450 reaction phenotyping, recombinant CYP1A2 (Bactosomes)
T1 sequence (P05177 1-516): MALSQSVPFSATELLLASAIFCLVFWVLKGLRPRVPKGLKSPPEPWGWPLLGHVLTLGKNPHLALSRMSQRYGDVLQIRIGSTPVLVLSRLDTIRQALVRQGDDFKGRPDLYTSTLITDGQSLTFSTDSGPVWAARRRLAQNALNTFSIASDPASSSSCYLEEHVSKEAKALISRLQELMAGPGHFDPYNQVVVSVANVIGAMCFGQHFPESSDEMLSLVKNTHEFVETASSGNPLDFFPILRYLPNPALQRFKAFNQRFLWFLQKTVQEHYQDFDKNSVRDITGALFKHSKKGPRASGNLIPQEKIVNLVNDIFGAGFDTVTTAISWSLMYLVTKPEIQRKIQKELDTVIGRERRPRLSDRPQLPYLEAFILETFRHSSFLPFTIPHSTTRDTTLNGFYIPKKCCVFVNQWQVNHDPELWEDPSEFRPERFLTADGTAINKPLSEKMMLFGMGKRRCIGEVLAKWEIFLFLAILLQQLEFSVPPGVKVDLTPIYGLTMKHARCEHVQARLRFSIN
Description: as §1, §2

CYP2C19 = CYP2C19 (Homo sapiens, UniProt P33261); experiment: Cytochrome P450 reaction phenotyping, recombinant CYP2C19 (Bactosomes); settings: human, recombinant enzyme, pH 7.4
CYP2C19, sequence (P33261 whole entry): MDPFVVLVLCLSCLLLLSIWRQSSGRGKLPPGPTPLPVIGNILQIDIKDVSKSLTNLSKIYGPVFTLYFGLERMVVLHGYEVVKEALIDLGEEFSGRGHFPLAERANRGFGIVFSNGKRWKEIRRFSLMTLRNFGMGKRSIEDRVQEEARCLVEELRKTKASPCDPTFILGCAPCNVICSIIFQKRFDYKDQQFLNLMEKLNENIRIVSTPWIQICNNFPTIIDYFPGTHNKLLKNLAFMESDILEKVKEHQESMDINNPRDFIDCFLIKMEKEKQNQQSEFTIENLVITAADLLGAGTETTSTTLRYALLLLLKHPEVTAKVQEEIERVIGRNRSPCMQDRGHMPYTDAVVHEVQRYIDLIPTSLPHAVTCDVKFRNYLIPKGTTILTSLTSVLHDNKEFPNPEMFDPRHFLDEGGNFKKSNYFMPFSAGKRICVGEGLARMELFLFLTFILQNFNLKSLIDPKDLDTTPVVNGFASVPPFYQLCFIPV
Description: as §1, §2

CYP2B6 = target: T2, CYP2B6 (Homo sapiens, UniProt P20813); experiment: Cytochrome P450 reaction phenotyping, recombinant CYP2B6 (Bactosomes); settings: CYP2B6, substrate 1 μM
T2 sequence (P20813 1-491): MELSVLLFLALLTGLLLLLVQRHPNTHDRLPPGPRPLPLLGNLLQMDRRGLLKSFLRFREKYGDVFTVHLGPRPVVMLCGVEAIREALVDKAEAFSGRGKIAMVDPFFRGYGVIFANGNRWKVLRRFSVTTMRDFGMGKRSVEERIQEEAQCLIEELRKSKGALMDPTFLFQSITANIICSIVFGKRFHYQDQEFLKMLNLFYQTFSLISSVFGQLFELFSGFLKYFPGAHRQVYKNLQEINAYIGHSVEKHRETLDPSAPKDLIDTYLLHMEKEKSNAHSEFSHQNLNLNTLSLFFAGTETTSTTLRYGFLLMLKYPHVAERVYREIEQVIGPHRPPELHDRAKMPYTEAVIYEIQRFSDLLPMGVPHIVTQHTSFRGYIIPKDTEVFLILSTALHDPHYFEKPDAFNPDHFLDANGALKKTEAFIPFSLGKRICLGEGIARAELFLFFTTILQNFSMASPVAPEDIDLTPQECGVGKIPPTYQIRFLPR
Description: as §1, §2

CYP2C8 = target: T3, CYP2C8 (Homo sapiens, UniProt P10632); experiment: Cytochrome P450 reaction phenotyping, recombinant CYP2C8 (Bactosomes); settings: CYP2C8, substrate 1 μM
T3 sequence (P10632 1-490): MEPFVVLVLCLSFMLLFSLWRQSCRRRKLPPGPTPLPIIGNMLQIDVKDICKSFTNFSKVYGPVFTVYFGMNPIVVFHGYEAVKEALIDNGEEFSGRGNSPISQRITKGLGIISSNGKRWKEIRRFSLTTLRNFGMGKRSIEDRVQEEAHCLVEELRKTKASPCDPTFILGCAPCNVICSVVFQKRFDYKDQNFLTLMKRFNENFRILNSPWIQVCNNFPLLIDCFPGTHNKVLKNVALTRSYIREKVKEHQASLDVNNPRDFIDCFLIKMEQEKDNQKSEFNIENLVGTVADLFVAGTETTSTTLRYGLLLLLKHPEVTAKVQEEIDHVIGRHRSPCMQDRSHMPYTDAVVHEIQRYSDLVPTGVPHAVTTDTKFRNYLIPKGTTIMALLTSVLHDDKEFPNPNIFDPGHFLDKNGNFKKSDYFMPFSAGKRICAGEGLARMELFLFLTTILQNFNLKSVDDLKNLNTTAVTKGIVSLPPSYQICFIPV
Description: as §1, §2

CYP2C9 = CYP2C9 (Homo sapiens, UniProt P11712); experiment: Cytochrome P450 reaction phenotyping, recombinant CYP2C9 (Bactosomes); settings: human, recombinant enzyme, pH 7.4
CYP2C9, sequence (P11712 whole entry): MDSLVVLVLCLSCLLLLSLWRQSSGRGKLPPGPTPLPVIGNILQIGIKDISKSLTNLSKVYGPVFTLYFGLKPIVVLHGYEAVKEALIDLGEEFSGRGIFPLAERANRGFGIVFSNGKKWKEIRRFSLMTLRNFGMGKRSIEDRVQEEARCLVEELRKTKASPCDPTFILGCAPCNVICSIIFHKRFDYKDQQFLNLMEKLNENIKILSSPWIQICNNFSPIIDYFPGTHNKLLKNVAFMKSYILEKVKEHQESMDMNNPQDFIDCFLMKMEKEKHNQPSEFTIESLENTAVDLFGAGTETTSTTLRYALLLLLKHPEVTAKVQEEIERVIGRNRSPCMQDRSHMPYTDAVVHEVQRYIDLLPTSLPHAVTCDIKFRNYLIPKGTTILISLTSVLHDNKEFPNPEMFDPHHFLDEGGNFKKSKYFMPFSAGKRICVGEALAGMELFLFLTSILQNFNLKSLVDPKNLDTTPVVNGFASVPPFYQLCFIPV
Description: as §1, §2

CYP3A4 = CYP3A4 (Homo sapiens, UniProt P08684); experiment: Cytochrome P450 reaction phenotyping, recombinant CYP3A4 (Bactosomes); settings: human, recombinant enzyme, pH 7.4
CYP3A4, sequence (P08684 whole entry): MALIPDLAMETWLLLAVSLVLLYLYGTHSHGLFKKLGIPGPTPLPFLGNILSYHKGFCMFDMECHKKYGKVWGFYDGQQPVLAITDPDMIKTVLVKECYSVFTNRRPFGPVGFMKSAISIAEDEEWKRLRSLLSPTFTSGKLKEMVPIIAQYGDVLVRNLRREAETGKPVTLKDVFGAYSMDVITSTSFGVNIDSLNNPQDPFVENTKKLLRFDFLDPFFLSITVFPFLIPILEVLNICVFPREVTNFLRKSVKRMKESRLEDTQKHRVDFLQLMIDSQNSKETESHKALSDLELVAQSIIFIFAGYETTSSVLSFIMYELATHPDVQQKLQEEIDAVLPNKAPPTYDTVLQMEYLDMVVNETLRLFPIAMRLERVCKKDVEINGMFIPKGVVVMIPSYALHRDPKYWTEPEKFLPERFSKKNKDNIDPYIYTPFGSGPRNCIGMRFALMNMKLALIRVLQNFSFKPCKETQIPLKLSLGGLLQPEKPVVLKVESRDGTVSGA
Description: as §1, §2

[4] = Stability in human cryopreserved hepatocytes without and with cimetidine or thiabendazole (Example 6); settings: human, cryopreserved hepatocytes (suspension), substrate 1 μM, no inhibitor
Description: Mebendazole (1 μM) was incubated with cryopreserved human hepatocytes for 60 min in the absence and presence of cimetidine at 30, 100 and 300 μM) and thiabendazole at 10, 30 and 100 μM and samples taken at the required time points. The amount of test compound remaining at each time point was analysed by LC-MS/MS. Appropriate control compounds were also incubated along with ethoxycoumarin, which was incubated in the absence and presence of cimetidine and thiabendazole.
The final incubation volume was 500 μL. Two control compounds were included, alongside appropriate vehicle control. A positive control compound, ethoxycoumarin, for CYP1A2 was included. The positive control compound was incubated without inhibitor and in the presence of each inhibitor. The reactions were stopped by transferring 50 μL of incubate to 100 μL acetonitrile containing internal standard at the appropriate time points (0, 5, 10, 20, 40 and 60 min). The termination plates were centrifuged at 2500 rpm at 4° C. for 30 min to precipitate the protein.

[5] = cryopreserved hepatocytes (suspension), no inhibitor
[6] = pH 7.4, with cimetidine 30 μM, plus 30 μM cimetidine
[7] = pH 7.4, with cimetidine 100 μM, plus 100 μM cimetidine
[8] = pH 7.4, with cimetidine 300 μM, plus 300 μM cimetidine

half-life at 1 μM [1, 5]: 0.215 h
half-life at 1 μM ([1]; cryopreserved hepatocytes, with cimetidine 30 μM, cimetidine 30 μM): 0.223 h
half-life at 1 μM ([1]; cryopreserved hepatocytes, with cimetidine 100 μM, cimetidine 100 μM): 0.262 h
half-life at 1 μM ([1]; cryopreserved hepatocytes, with cimetidine 300 μM, cimetidine 300 μM): 0.313 h
half-life at 1 μM ([1]; cryopreserved hepatocytes, with furafylline 3 μM, furafylline 3 μM): 0.993 h
half-life at 1 μM ([1]; cryopreserved hepatocytes, with furafylline 10 μM, furafylline 10 μM): 1.49 h
half-life at 1 μM ([1]; cryopreserved hepatocytes, with furafylline 30 μM, furafylline 30 μM): 1.83 h
half-life at 1 μM [2, 6]: 1.09 h
microsomal CLint at 1 μM [2, 6]: 21.2 µL/min/mg
half-life at 1 μM [2, 7]: 1.32 h
microsomal CLint at 1 μM [2, 7]: 17.6 µL/min/mg
half-life at 1 μM [2, 8]: 1.66 h
microsomal CLint at 1 μM [2, 8]: 13.9 µL/min/mg
microsomal CLint at 1 μM ([2]; pH 7.4, with furafylline 3 μM, plus 3 μM furafylline): 3 to 49 µL/min/mg
microsomal CLint at 1 μM ([2]; pH 7.4, with furafylline 10 μM, plus 10 μM furafylline): 2 to 58 µL/min/mg
microsomal CLint at 1 μM ([2]; pH 7.4, with furafylline 30 μM, plus 30 μM furafylline): 2.71 µL/min/mg
half-life at 1 μM ([2]; pH 7.4, no inhibitor): 1.03 h
microsomal CLint at 1 μM ([2]; pH 7.4, no inhibitor): 22.4 µL/min/mg
CLint ([2]; plus 3 μM furafylline): 3.49 μL/min/mg protein
CLint ([2]; plus 10 μM furafylline): 2.58 μL/min/mg protein
SMILES: CCOc1ccc(NC(C)=O)cc1 [Phenacetin]

SMILES: CCC[S+]([O-])c1ccc2[nH]c(NC(=O)OC)nc2c1 (centres unmarked) [Ricobendazole, albendazole sulphoxide]
half-life at 1 μM (CYP2D6): 7.75 ± 4.55 h
microsomal CLint at 0.1 μM ([3]; pH 7.4, with cimetidine 30 μM, 0.1 μM, 1 mg/mL, cimetidine 30 μM, read-out: CLint): 3.15 ± 1.24 µL/min/mg
half-life at 0.1 μM ([3]; pH 7.4, with cimetidine 30 μM, 0.1 μM, 1 mg/mL, cimetidine 30 μM): 3.67 h
microsomal CLint at 0.1 μM ([3]; pH 7.4, with cimetidine 100 μM, 0.1 μM, 1 mg/mL, cimetidine 100 μM, read-out: CLint): 3.43 ± 1.56 µL/min/mg
half-life at 0.1 μM ([3]; pH 7.4, with cimetidine 100 μM, 0.1 μM, 1 mg/mL, cimetidine 100 μM): 3.37 h
microsomal CLint at 0.1 μM ([3]; pH 7.4, with cimetidine 300 μM, 0.1 μM, 1 mg/mL, cimetidine 300 μM, read-out: CLint): 3.54 ± 1.09 µL/min/mg
half-life at 0.1 μM ([3]; pH 7.4, with cimetidine 300 μM, 0.1 μM, 1 mg/mL, cimetidine 300 μM): 3.27 h
microsomal CLint at 0.1 μM ([3]; pH 7.4, with furafylline 3 μM, read-out: CLint): 1.27 ± 2.47 µL/min/mg
half-life at 0.1 μM ([3]; pH 7.4, with furafylline 3 μM): 9.08 h
microsomal CLint at 0.1 μM ([3]; pH 7.4, with furafylline 10 μM, read-out: CLint): 4.31 ± 2.48 µL/min/mg
half-life at 0.1 μM ([3]; pH 7.4, with furafylline 10 μM): 2.68 h
microsomal CLint at 0.1 μM ([3]; pH 7.4, with furafylline 30 μM, read-out: CLint): 2.92 ± 1.75 µL/min/mg
half-life at 0.1 μM ([3]; pH 7.4, with furafylline 30 μM): 3.95 h
microsomal CLint at 0.1 μM ([3]; pH 7.4, 0.1 μM, 1 mg/mL, no inhibitor, read-out: CLint): 2.83 ± 1.76 µL/min/mg
half-life at 0.1 μM ([3]; pH 7.4, 0.1 μM, 1 mg/mL, no inhibitor): 4.08 h
microsomal CLint at 0.1 μM ([3]; optimisation, 0.1 μM and 1 mg/mL protein, read-out: intrinsic clearance): 6.63 ± 1.84 µL/min/mg
microsomal CLint at 1 μM ([3]; optimisation, 1 μM and 0.5 mg/mL protein, read-out: intrinsic clearance): 4.39 ± 2.77 µL/min/mg
% remaining (CYP1A2; CYP1A2, substrate 1 μM, 45 min): 85%
half-life at 1 μM (CYP1A2; human, recombinant enzyme, pH 7.4): 4 ± 0.635 h
half-life at 1 μM (CYP2C19): 10.3 ± 10.8 h
metabolism by recombinant enzyme (CYP2B6): not metabolised
metabolism by recombinant enzyme (CYP2C8): not metabolised
half-life at 1 μM (CYP2C9): 4.53 ± 2.67 h
half-life at 1 μM (CYP3A4): 8.15 ± 11.4 h

half-life at 1 μM [1, 5]: 0.133 h
hepatocyte CLint at 1 µM ([4]; CLint): 229 µL/min/1e6 cells
half-life at 1 μM ([4]; t½): 6.05 min
SMILES: O=c1ccc2ccc(O)cc2o1 [Umbelliferone]
